Test system: A431 cells
Assay: Binding of FITC-labeled EGFm1 to A431 cells, flow cytometry
Format: cell-based
Description: • Fig. 1: Schematic representation of the strategy to isolate side-chain deaminated ligands (A) or side-chain decarboxylated ligands (B). Randomization in approach A is performed by using sets of amino acids (X) devoid of lysines or lysines and arginines. Randomization in approach B is performed by using sets of amino acids (X) devoid of aspartic acids (Asp) and glutamic acids (Glu). • Fig. 2: Schematic representation of the strategy of side-chain elimination/addition (A) or side-chain group reduction (B), both examplified for elimination or reduction of cysteine residues. In these examples randomization is performed by using sets of amino acids (X) devoid of cysteines (Cys). Both approaches can be applied equally for any other amino acid residues. • Fig. 3: Amino acid sequences of EGF of various species. The positions of lysine and arginine residues is highlighted by grey boxes. • Fig. 4: (A) IMAC purification of recombinant HisEGFm1 from bacterial periplasm. Eluted fractions were analyzed on a 20% SDS-Tricine gel (HisEGFm1 is indicated by an arrowhead). Recombinant human EGF was included as control. (B) Size exclusion chromatography of purified EGFwt and HisEGFm1 on a superose 12 column. The positions of BSA (67 kDa), Ovalbumin (43 kDa) and Myoglobin (17 kDa) are indicated by arrows. (C) Competition of binding of fdEGF to A431 by EGFwt or HisEGFm1. • Fig. 5: Binding of FITC-labeled EGFm1 to A431. A) FITC-labeled HisEGFm1 was incubated with A431 at varying concentrations and binding was analyzed by flow cytometry (0, cells without EGFm1; 1, 17 ng/ml; 2 50 ng/ml; 3, 170 ng/ml). B) Competition of FITC-labeled EGFm1 at 170 ng/ml without (1) or with (2) excess amounts of unlabelled EGFwt. C) Control experiments with BSA. • Fig. 6: (A) Binding of EGFm1 liposomes to A431 cells.
EGFwt or EGFm1 (50 µg) were diluted to a conc. of 500 µg/ml and the pH was adjusted to 9.0 with carbonate buffer pH 9.5. FITC was added at a 10-fold molar excess and incubated overnight at 4°C. […] Fluorescence intensity was determined using a fluorescence spectrophotometer (Victor^2; Wallac, Freiburg, Germany). […]

Fluorescein-labeled EGFm1: EGFm1 labeled with fluorescein-isothiocyanate at the N-terminal amino group (NSDSECPLSHDGYCLHDGVCMYIEALDQYACNCVVGYIGERCQYSDLSWWELS; not fully specified; left off: small tags and cut ends)
competition of binding to A431 (excess amounts of unlabeled EGFwt, BSA as control): could be competed with excess amounts of unlabeled EGFwt but not with BSA
binding to A431 reached saturation at (fluorescein-labeled protein, flow cytometry): approximately 50 ng/ml
binding to A431 cells (fluorescein-labeled protein, varying concentrations): strong and concentration-dependent binding
